Assays:
[1] = system: people with ALS; settings: cited from earlier work
[2] = system: patients suffering from amyotrophic lateral sclerosis (ALS); assay: Study AB10015: randomized, double-blind, placebo-controlled phase 2/3 study of masitinib in combination with riluzole versus placebo in combination with riluzole (interim and final analysis); format: in vivo, human; settings: for Δ ALSFRS-R = (least squares means) change from baseline to week 48 in ALSFRS-R score: mITT; for Delta [CI] = absolute difference between subpopulations in Δ ALSFRS-R: in points
Excerpt: There are two distinct populations of ALS patients: a subpopulation of “normal progressors” and a subpopulation of “faster progressors”. The targeted population for primary analysis is the subpopulation of “normal progressors”. “Normal progressors” are defined as ALS patients whose progression of ALSFRS-R score before randomization is less than 1.1 point per month. This population should represent about 80% of ALS patients. The population of “normal progressors+faster progressors” comprises all ALS patients, “normal progressor” ALS patients or “faster progressor” ALS patients. “Faster progressors” are defined as ALS patients whose progression of ALSFRS-R score before randomization is greater than or equal to 1.1 points per month. Main Inclusion Criteria: • Female or male patient aged between 18 and 75 years of age, with a weight >50 kg and body mass index between 18 and 35 kg/m^2; • Familial or sporadic ALS; • Patient diagnosed with laboratory supported, clinically probable or definite ALS according to the World Federation of Neurology Revised El Escorial criteria [Brooks B R. […] For the morning dose, tablets were taken during breakfast. In case of nausea, the administration took place during lunch. For the evening dose, tablets were taken during dinner. Modified Intent-To-Treat (mITT) dataset—The mITT population will include all ITT patients with probable or definite amyotrophic lateral sclerosis who took at least one dose of study treatment (masitinib or placebo). Change from baseline to week 48 in the revised Amyotrophic Lateral Sclerosis Functional Rating Scale (ALSFRS-R) In accordance with study AB10015 protocol, an interim analysis was planned to be performed after around 50% of the information became available for analysis. At the time of the interim analysis, 192 (50%) out of a planned 381 patients who had been randomized before the 12 Feb. 2015 could have reached the week 48 visit. […] The interim analysis primary endpoint is based on the change from baseline to week 48 in ALSFRS-R. Primary analysis was performed in the mITT “normal progressor” (i.e. non-aggressive or moderately aggressive ALS) subpopulation. […] Missing values of ALSFRS-R at study visit were replaced based on the Modified Last Observation Carried Forward (mLOCF) method. Absolute change from baseline to week 48 in ALSFRS-R was estimated using a model of analysis of covariance (ANCOVA) adjusted on following factors: treatment (masitinib or placebo), and stratification criteria of: ALS patient subpopulation, progression of ALSFRS-R score (point/month) from date of first symptom to baseline, ALSFRS-R score at baseline, site of onset (bulbar versus others), age at baseline; and geographical region. Two-sided (1-alpha) confidence interval of the difference of mean change from baseline to week 48 between groups was calculated. The primary analysis used a re-randomization test. The re-randomization test, also referred to as a randomization test or permutation test, is a type of statistical significance test in which the distribution of the test statistic under the null hypothesis is obtained by calculating all possible values of the test statistic under rearrangements of the labels on the observed data points. The proportion of replicates for which the p-value of treatment factor is at least as small as the p-value of treatment factor from the original data was calculated. In this proportion the observed p-value of treatment factor is also accounted for as one replicate in numerator and denominator. This proportion is the p-value for the randomization test. […] To control overall family-wise type I error rate at the study level, analyses of efficacy was conducted in a stepwise manner (fixed sequence method). Fixed sequence method ensures that the population claimed and treated with a selected dosage will be done by controlling the global family-wise error rate at the 0.0311 level for the primary analysis. […]

In the case of `Nc1nc2ccc(OC(F)(F)F)cc2s1` [riluzole, 6-(trifluoromethoxy)benzothiazol-2-amine], the “effect on patient function” value ([1]; any of the randomized trials considered separately) is given as “no beneficial effect”, the “effect on bulbar and limb function” value ([1]; data of the trials combined, not on muscle strength, to be interpreted with caution) is given as “small beneficial effect” and the “safety of the drug” value ([1]; riluzole 100 mg, meta-analysis) is given as “not a major concern”.

For `Cc1ccc(NC(=O)c2ccc(CN3CCN(C)CC3)cc2)cc1Nc1nc(-c2cccnc2)cs1` [Masitinib (4.5), 4-(4-methylpiperazin-1-ylmethyl)-N-[4-methyl-3-(4-pyridin-3ylthiazol-2-ylamino)phenyl]benzamide], the “Δ ALSFRS-R = (least squares means) change from baseline to week 48 in ALSFRS-R score” value ([2]; final AB10015, faster progressor subgroup (≥1.1 pts/m), masitinib 4.5 mg/kg/day plus riluzole, comparison with placebo arm) was −17.9268, the “Δ ALSFRS-R = (least squares means) change from baseline to week 48 in ALSFRS-R score” value ([2]; final AB10015, masitinib 4.5 mg/kg/day treated faster progressors (≥1.1 pts/m), comparison moderately aggressive vs faster progressors) was −25.0567 and the “Δ ALSFRS-R = (least squares means) change from baseline to week 48 in ALSFRS-R score” value ([2]; final AB10015, masitinib 4.5 mg/kg/day treated faster progressors (≥1.1 pts/m), comparison non-aggressive vs faster progressors) was −18.2920. The “Δ ALSFRS-R = (least squares means) change from baseline to week 48 in ALSFRS-R score” value ([2]; final AB10015, masitinib 4.5 mg/kg/day treated moderately aggressive (≥0.8 to <1.1 pts/m), comparison moderately aggressive vs faster progressors) was −15.7258, the “Δ ALSFRS-R = (least squares means) change from baseline to week 48 in ALSFRS-R score” value ([2]; final AB10015, masitinib 4.5 mg/kg/day treated moderately aggressive plus aggressive (≥0.8 pts/m), comparison with non-aggressive) was −15.9080 and the “Δ ALSFRS-R = (least squares means) change from baseline to week 48 in ALSFRS-R score” value ([2]; final AB10015, masitinib 4.5 mg/kg/day treated non-aggressive (<0.8 pts/m), comparison non-aggressive vs faster progressors) was −7.4509. The “Δ ALSFRS-R = (least squares means) change from baseline to week 48 in ALSFRS-R score” value ([2]; final AB10015, masitinib 4.5 mg/kg/day treated non-aggressive (<0.8 pts/m), comparison non-aggressive vs moderately aggressive plus aggressive) was −7.8085, the “Delta [CI] = absolute difference between subpopulations in Δ ALSFRS-R” value ([2]; final AB10015, masitinib 4.5 mg/kg/day treated patients, moderately aggressive (≥0.8 to <1.1 pts/m) vs faster progressors (≥1.1 pts/m), week 48, CI [−19.4226, 0.761], P=0.0687) was −9.3308[−19.4226; and the “Delta [CI] = absolute difference between subpopulations in Δ ALSFRS-R” value ([2]; final AB10015, masitinib 4.5 mg/kg/day treated patients, non-aggressive (<0.8 pts/m) vs moderately aggressive plus aggressive (≥0.8 pts/m), week 48, CI [−12.3719, −3.8271], P=0.0003) was −8.0995[−12.3719;. The “Δ ALSFRS-R = (least squares means) change from baseline to week 48 in ALSFRS-R score” value ([2]; final AB10015, non-aggressive subgroup (<0.8 pts/m), masitinib 4.5 mg/kg/day plus riluzole, comparison with placebo arm) was −8.2552, the “Δ ALSFRS-R = (least squares means) change from baseline to week 48 in ALSFRS-R score” value ([2]; final AB10015, normal progressor subgroup (<1.1 pts/m), masitinib 4.5 mg/kg/day plus riluzole, comparison with placebo arm) was −8.7045 and the “Δ ALSFRS-R = (least squares means) change from baseline to week 48 in ALSFRS-R score” value ([2]; final AB10015, overall study population (normal progressor and faster progressor), masitinib 4.5 mg/kg/day plus riluzole, comparison with placebo arm) was −10.7019. For the same molecule, the “conclusion on treatment effectiveness” value ([2]; final analysis, ALS patients with progression of ALSFRS-R score prior to treatment initiation of less than 1.1 points per month) was “effective treatment”, the “Δ ALSFRS-R = (least squares means) change from baseline to week 48 in ALSFRS-R score” value ([2]; final analysis, masitinib 4.5 mg/kg/day treated faster progressors (>1.1 pts/m), comparison normal vs faster progressors) was −19.5855 and the “Δ ALSFRS-R = (least squares means) change from baseline to week 48 in ALSFRS-R score” value ([2]; final analysis, masitinib 4.5 mg/kg/day treated normal progressors (<1.1 pts/m), comparison normal vs faster progressors) was −8.3939. For the same molecule, the “Δ ALSFRS-R = (least squares means) change from baseline to week 48 in ALSFRS-R score” value ([2]; final analysis, moderately aggressive subgroup (≥0.8 to <1.1 pts/m), masitinib 4.5 mg/kg/day plus riluzole, comparison with placebo arm) was −11.0031, the “conclusion on treatment effectiveness” value ([2]; final analysis, progression of ALSFRS-R score of at least 1.1 points per month (aggressive ALS)) was “ineffective treatment” and the “conclusion on treatment effectiveness” value ([2]; final analysis, progression of ALSFRS-R score of less than 0.8 points per month (non-aggressive ALS)) was “most effective”. For the same molecule, the “conclusion on treatment effectiveness” value ([2]; final analysis, progression of ALSFRS-R score of ≥0.8 to <1.1 points per month (moderately aggressive ALS), to a lesser extent than non-aggressive) was “effective”, the “difference between treatment-arms (masitinib versus placebo) in ALSFRS-R change from baseline to week 48” value ([2]; final, faster progressors subpopulation (≥1.1 points per month), 4.5 mg/kg/day) was “No significant difference” and the “average decrease in ALSFRS-R score” value ([2]; final, masitinib 4.5 mg/kg/day treated faster progressors, week 48) was 19.6 points. For the same molecule, the “average decrease in ALSFRS-R score” value ([2]; final, masitinib 4.5 mg/kg/day treated normal progressors, week 48) was 8.4 points, the “difference in decrease of ALSFRS-R score between normal progressors and faster progressors” value ([2]; final, masitinib 4.5 mg/kg/day treated patients, week 48, P<0.001) was 11.2 points and the “treatment effect in terms of ALSFRS-R score of moderately aggressive ALS patients over aggressive ALS patients” value ([2]; final, masitinib treated, ≥0.8 to <1.1 vs ≥1.1 points per month) was “strong trend in treatment effect”. For the same molecule, the “retardation in ALSFRS-R score, difference masitinib versus placebo” value ([2]; final, moderately aggressive ALS patients (≥0.8 to <1.1 points per month), 4.5 mg/kg/day, week 48) was 2.2 points, the “change in ALSFRS-R score” value ([2]; final, moderately aggressive ALS patients (≥0.8 to <1.1 points per month), masitinib 4.5 mg/kg/day, week 48, placebo −13.2) was −11 points and the “retardation in ALSFRS-R score, difference masitinib versus placebo” value ([2]; final, non-aggressive ALS patients (<0.8 points per month), 4.5 mg/kg/day, week 48) was 3.4 points. The “change in ALSFRS-R score” value ([2]; final, non-aggressive ALS patients (<0.8 points per month), masitinib 4.5 mg/kg/day, week 48, placebo −11.7) was −8.3 points, the “difference in ALSFRS-R score between masitinib and placebo” value ([2]; final, normal progressors (<1.1 points per month), 4.5 mg/kg/day, week 48) was 3.4 points and the average decrease in ALSFRS-R score ([2]; final, normal progressors (<1.1 points per month), masitinib 4.5 mg/kg/day, week 48, placebo −12.1, P=0.0142) was 8.7 points. The “difference between treatment-arms (masitinib versus placebo) in ALSFRS-R change from baseline to week 48” value ([2]; final, overall study population (normal progressor and faster progressor patients), 4.5 mg/kg/day, P=0.11) was “no significant difference”, the “Δ ALSFRS-R = (least squares means) change from baseline to week 48 in ALSFRS-R score” value ([2]; interim AB10015, faster progressor subgroup (≥1.1 points/month), masitinib 4.5 mg/kg/day plus riluzole, comparison with placebo arm) was −20.77 and the “Δ ALSFRS-R = (least squares means) change from baseline to week 48 in ALSFRS-R score” value ([2]; interim AB10015, masitinib 4.5 mg/kg/day treated faster progressors (≥1.1 points/month), subpopulation comparison normal vs faster) was −17.90. The “Δ ALSFRS-R = (least squares means) change from baseline to week 48 in ALSFRS-R score” value ([2]; interim AB10015, masitinib 4.5 mg/kg/day treated normal progressors (<1.1 points/month), subpopulation comparison normal vs faster) was −5.57, the “Δ ALSFRS-R = (least squares means) change from baseline to week 48 in ALSFRS-R score” value ([2]; interim AB10015, normal progressor subgroup (<1.1 points/month), masitinib 4.5 mg/kg/day plus riluzole, comparison with placebo arm) was −9.02 and the “difference between treatment-arms (masitinib versus placebo) in ALSFRS-R change from baseline to week 48” value ([2]; interim, faster progressor subpopulation, 4.5 mg/kg/day) was “No significant difference”. For the same molecule, the “average decrease in ALSFRS-R score” value ([2]; interim, masitinib 4.5 mg/kg/day treated faster progressor (aggressive ALS) patients, week 48) was 17.9 points, the “average decrease in ALSFRS-R score” value ([2]; interim, masitinib 4.5 mg/kg/day treated normal progressor (non-aggressive or moderately aggressive ALS) patients, week 48) was 5.57 points and the “average decrease in ALSFRS-R score” value ([2]; interim, normal progressors, masitinib 4.5 mg/kg/day, baseline to week 48, placebo 14.51, P=0.0032) was 9.02 points.
